The values that follow come from paper PMC9046991, “Preparation, Characterization, and Cytoprotective Effects on HUVECs of Fourteen Novel Angiotensin-I-Converting Enzyme Inhibitory Peptides From Protein Hydrolysate of Tuna Processing By-Products” (Frontiers in Nutrition, 2022).

Read-outs that look alike come from different tables or passages of the source. Where a SMILES comes first, the peptide text is derived from it.

Data set [1] has as its system HUVECs. In words: NO production in HUVECs. Type of data set: cell-based, human. The following applies: 24 h, mean ± SD. The source says: NO and ET-1 productions in treated cells were obtained by employing human NO and ET-1 assay kits according to the manufacturers' protocol.
The subject of data set [2] is HUVECs. In words: ET-1 secretion of HUVECs. Type of data set: cell-based, human. The following applies: NE 0.5 μM, 24 h, mean ± SD. As to the method:
The NO and ET-1 contents of HUVECs were determined after a 24 h treatment of ACEi peptides (STAP3, STAP4, STAP7, and STAP11, respectively) ([34]). HUVECs received the plating process in 6-well plates and the treating process with Cap (1 μM), NE (0.5 μM), designed concentrations of ACEi peptides (100, 200, and 400 μM) for 24 h, or treated with both NE (0.5 μM) and 200 μM ACEi peptides for 24 h. NO and ET-1 productions in treated cells were obtained by employing human NO and ET-1 assay kits according to the manufacturers' protocol.

Data set [3] concerns HUVECs. In words: HUVEC cell viability (MTT assay). Type of data set: cell-based, human. The method, then:
After thawing, HUVECs were maintained in cultured flasks and cultured to confluence in DMEM containing 1% penicillin-streptomycin liquid, supplemented with 10% FBS. HUVECs received the culturing process at 37°C in a humidified 5% CO2 atmosphere ([34]).
The cytotoxicity of STAP3, STAP4, STAP7, and STAP11 on HUVECs was assessed using MTT assay on manufacturer's instructions ([34]). In brief, HUVECs received the incubation in 96-well plates at a density of 0.8 × 10^4 cells per well with 180 μl completed DMEM. Following the confluence of 50–60% in the 96-well plates, cells were treated with 20 μl peptides under-designed concentrations (100, 200, and 400 μM) and further cultured for 24 h at 37°C. Subsequently, cells were added with 20 μL MTT solutions (5 mg/mL) and incubated for 4 h. Finally, DMSO was added into each well and the absorbance (A) at 490 nm was determined. The cell viability was calculated as:
Cell viability(% of blank control)=(Aexperiment group/Acontrol group)×100.

Data set [4] has as its system ACE. The following applies: cited from earlier work; for IC50: data in the AHTPDB database, read-out: IC50 (ACEi ability). From the text: Then, Ser residue, especially its hydroxyl group, should play a vital effect on the ACEi capability of STAP4, STAP7, and STAP11 ([67]). Yust et al. made clear that short peptide sequences ...
Where [5] appears, read: 100, 200 and 400 μM, 24 h, MTT, % of blank control.

In the case of `C[C@H](CS)C(=O)N1CCC[C@H]1C(=O)O` [Cap, captopril], in data set [1] (Cap 1 μM, positive control), the NO level worked out at 65.96 ± 1.83 μmol/gprot. For `NC[C@H](O)c1ccc(O)c(O)c1` [NE, norepinephrine], the ET-1 secretion in data set [2] was determined as 140.23 ± 5.81 pg/mL. The compound further registered an NO level in data set [1] (NE 0.5 μM) of 24.25 ± 0.63 μmol/gprot. Regarding `C[C@@H](O)[C@H](N)C(=O)N[C@@H](CCC(=O)O)C(=O)O` [STAP1, Thr-Glu] (H-Thr-Glu-OH), the cell viability in data set [3] (100 µM, SD) came out at 108.52 ± 5.19%. Turning to `CSCC[C@H](N)C(=O)N[C@@H](CCC(=O)O)C(=O)N[C@@H](CCCCN)C(=O)N[C@@H](CO)C(=O)O` [STAP4, Met-Glu-Lys-Ser] (H-MEKS-OH), the cell viability result in data set [3] (setting [5]) was “no significant influence on the proliferation of HUVECs”.

On to `CSCC[C@H](N)C(=O)N[C@@H](CCCCN)C(=O)N[C@@H](CCCCN)C(=O)N[C@@H](CO)C(=O)O` [STAP7, Met-Lys-Lys-Ser] (H-MKKS-OH), for which the cell viability entry in data set [3] (setting [5]) is recorded as “no significant influence on the proliferation of HUVECs”. In the case of `CC(C)C[C@H](N)C(=O)N1CCC[C@H]1C(=O)N[C@@H](CCCNC(=N)N)C(=O)N[C@@H](CO)C(=O)O` [STAP11, Leu-Pro-Arg-Ser] (H-LPRS-OH), the cell viability in data set [3] (400 µM, SD) is on record as 91.07 ± 1.36%; in data set [3] (setting [5]) it was “no significant influence on the proliferation of HUVECs”.

As to EHPVL [ACEi peptide from stone fish], the “IC50 (ACEi)” value in data set [4] (peptides from stone fish) was 1680 µg/mL. EVLIQ [ACEi peptide from stone fish]: the “IC50 (ACEi)” value in data set [4] (peptides from stone fish) is 1440 µg/mL. On to “IRWCT [ACEi peptide in the AHTPDB database]”, for which the 50% inhibitory concentration (IC50) in data set [4] was 1 µM.

With LAPPTM [ACEi peptide from stone fish], in data set [4] (peptides from stone fish), the “IC50 (ACEi)” value is 1310 µg/mL. For “LGPLGHQ [ACEi peptide from skate (Okamejei kenojei)]”, the “IC50 (ACEi)” value is 3490 µg/mL in data set [4] (peptides from Okamejei kenojei) and 4220 µg/mL in data set [4] (peptides from skate). “MIFPGAGGPEL [ACEi peptide in the AHTPDB database]”: in data set [4], the IC50 is 0.03 µM.

On to “MVGSAPGVL [ACEi peptide from skate (Okamejei kenojei)]”, for which the “IC50 (ACEi)” value in data set [4] (peptides from Okamejei kenojei) and in data set [4] (peptides from skate) was 3090 µg/mL throughout.

Regarding “PYVRYL [ACEi peptide in the AHTPDB database]”, the IC50 in data set [4] is 1.9 µM. Turning to “RYRP [ACEi peptide from protein hydrolysate of Saurida elongate]”, the “IC50 (ACEi)” value in data set [4] (peptide from Saurida elongate) is 3350 µg/mL. For the compound “VFPS [ACEi peptide in the AHTPDB database]”, the IC50 in data set [4] was 0.46 µM. As for “WRKER [ACEi peptide from Antarctic krill]”, the “IC50 (ACEi)” value in data set [4] (peptides from Antarctic krill) is 3285 µg/mL.
